Laboratory results: PMC6673703, “14-3-3 signal adaptor and scaffold proteins mediate GPCR trafficking” (Scientific Reports, 2019)
pEC50: −log10 of the molar value.

Biological target: T1, sphingosine-1-phosphate receptor 1 (S1PR1) (Homo sapiens, UniProt P21453)
T1 construct: full-length, C-terminal TEV fusion
Experiment: LinkLight S1PR1/β-arrestin interaction assay in HEK293 cells
Assay type: cell-based

T1 sequence (P21453 whole entry, the tested form may be a part): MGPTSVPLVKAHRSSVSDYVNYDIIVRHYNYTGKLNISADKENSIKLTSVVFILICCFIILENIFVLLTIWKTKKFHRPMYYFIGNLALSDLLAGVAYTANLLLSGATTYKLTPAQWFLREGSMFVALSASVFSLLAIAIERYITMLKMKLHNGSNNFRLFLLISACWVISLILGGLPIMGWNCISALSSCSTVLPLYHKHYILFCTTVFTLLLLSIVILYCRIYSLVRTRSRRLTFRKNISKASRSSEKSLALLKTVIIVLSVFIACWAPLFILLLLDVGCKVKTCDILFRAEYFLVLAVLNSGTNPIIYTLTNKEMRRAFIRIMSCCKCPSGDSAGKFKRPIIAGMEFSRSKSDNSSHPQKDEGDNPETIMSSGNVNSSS
T1 sequence (P32121 whole entry partner, the tested form may be a part): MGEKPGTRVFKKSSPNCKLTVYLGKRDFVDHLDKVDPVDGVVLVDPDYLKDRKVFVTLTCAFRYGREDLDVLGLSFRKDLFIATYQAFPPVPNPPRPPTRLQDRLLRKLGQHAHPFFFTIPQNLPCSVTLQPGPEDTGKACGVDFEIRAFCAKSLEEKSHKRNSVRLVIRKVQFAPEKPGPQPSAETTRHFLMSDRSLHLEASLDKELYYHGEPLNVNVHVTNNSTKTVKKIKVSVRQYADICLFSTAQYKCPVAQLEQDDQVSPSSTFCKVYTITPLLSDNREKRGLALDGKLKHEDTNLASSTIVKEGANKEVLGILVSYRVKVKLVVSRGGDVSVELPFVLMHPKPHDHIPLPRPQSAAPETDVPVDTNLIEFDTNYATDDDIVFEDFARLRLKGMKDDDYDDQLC

Question: How did the pEC50 turn out when CCCCCCCCCCCCC/C=C/[C@@H](O)[C@@H](N)COP(=O)(O)O [S1P] was run?
Answer: 6.89
